Tests used:
Assay type in all cases: cell-based, human
Conditions in all cases: TRAIL 20 ng/ml, 3 hours, Jurkat whole cell extracts
[1] = system: DEVDase (caspases 3 and 7); test: Protease assay of cell extracts with Ac-DEVD-AMC
Method: (§1) The human Jurkat T cell line containing a neomycin resistance gene was obtained from Dr. Charles Rudin (University of Chicago). Cells were maintained in RPMI 1640 medium containing 10% heat-inactivated fetal calf serum (FCS) with penicillin (100 U/mL), streptomycin (100 μg/mL), 20 mM HEPES, 2 mM L-glutamine and G418 (1 μg/ml) purchased from Gibco BRL (Burlington, Ontario) in a CO2 incubator at 37° C. To elicit apoptosis with PDT, Jurkat cells were incubated with different amounts of liposomally formulated benzoporphyrin derivative monoacid ring A (BPD-MA, verteporfin, QLT PhotoTherapeutics, Inc., Vancouver, Canada) for one hour at 37° C. under light-protected conditions. The culture medium used for experiments was identical to that used for the passage of the cells except that FCS was used at a concentration of 5%. Experiments were conducted either in 6-well culture plates at 5×10^6 cells in a volume of 4 ml per well or in 96-well microtiter plates at 1×10^5 cells per well at 0.2 ml per well. […]
(§2) These sequences are denoted by letter codes for each amino acid. […] The reaction mixture was incubated at 37° C. for 1 (DEVD.AMC) or 24 (VEID.AMC and IETH.AMC) h and fluorescence was measured using an excitation at 380 nm and an emission wavelength of 460 nm with a CytoFluor™ 2350 fluorescent measuring system (Perseptive Biosystems, Burlington, Ont).

VEIDase (caspase 6) = test: Protease assay of cell extracts with Ac-VEID-AMC
Method: as §1, §2

IETDase (caspase 8) = test: Protease assay of cell extracts with Ac-IETD-AMC
Method: as §1, §2

## TRAIL: recombinant, residues 114-281 of the soluble domain of human TRAIL (BIOMOL)
[1]
  increase in DEVDase-like activity versus control cells: approximately four-fold
VEIDase (caspase 6)
  increase in VEIDase-like activity versus control cells: two-fold
IETDase (caspase 8)
  increase in IETDase-like activity versus control cells: two-fold

— US20030008857A1, “Photodynamic therapy (PDT) in combination with factors that bind cell surface apoptosis-inducing receptors” (priority 1999, published 2003)
